Assay results reported in US20240124456A1, “AZA-ERGOLINE DERIVATIVE AND PREPARATION METHOD THEREFOR AND APPLICATION THEREOF” (SHANGHAITECH UNIVERSITY, priority 2021, published 2024).
Where two headings read alike, the source gives them in different places.

Experiments:
Format in all cases: in vivo
[1] = Pharmacokinetic properties in C57 male mice, single dose (plasma, LC-MS/MS); settings: for AUC(0-inf): read-out: Area under the drug-time curve AUC0-inf; for AUC(0-t): read-out: Area under the drug-time curve AUC0-t; for MRT: read-out: Mean residence time MRTPO; for half-life: read-out: Terminal elimination half-life t1/2 (converted); for bioavailability: read-out: Bioavailability F; for Cmax: read-out: Drug peak concentration Cmax; for Tmax: read-out: Time to peak tmax
Method: 1. Test of the pharmacokinetic properties of compound (−)-I-10 administered to C57 male mice by single intragastric administration, intraperitoneal injection and intravenous injection
Compound (−)-I-10 was administered in a single dose in C57 male mice, and then blood samples were collected at different time points, the concentration of the compound in mouse plasma was determined by LC-MS/MS and the relevant pharmacokinetic parameters were calculated to investigate the pharmacokinetics of the compound in the mice.
27 male C57 mice were provided by Suzhou Zhaoyan Experimental Animal Co., Ltd., and the experiment was carried out according to Table 4 below.
0.030 mL of blood was taken from each animal through the orbit each time and anticoagulated with EDTA-K2, and the collection time points were: 0, 5, 15, 30 min, 1, 2, 4, 6, 8, 24 h after administration of the test substance. Blood samples were placed on ice after collection, and the plasma was separated by centrifugation within 30 minutes (centrifugation conditions: 5000 rpm, 10 minutes, 4° C.) and stored at −80° C. until analysis.
Data acquisition and control system software was Analyst 1.5.1 software (Applied Biosystem). The sample peak integration method of the spectrum was automatic integration; the ratio of the peak area of the sample to the peak area of the internal standard was used as an index, and regression was performed with the concentration of the sample. Regression method: linear regression with a weight factor of 1/X2. Pharmacokinetic parameters were analyzed using WinNonlin Professional v6.3 (Pharsight, USA) using non-compartmental models. Cmax was the measured maximum drug concentration in blood, the area under the drug concentration in blood-time curve AUC (0→t) was calculated by the trapezoidal method, and Tmax was the time to peak of the drug concentration in blood after administration. The experimental data were expressed by “mean=standard deviation” (Mean±[…], n≥3) or “mean” (Mean, n=2).

[2] = Brain permeability in C57 male mice (plasma and brain tissue concentration); settings: mouse; for Kp at 0.5 h / Kp at 2 h: brain/plasma; for Kp at 0.5 h: read-out: Brain/blood concentration ratio at 0.5 h; for Kp at 2 h: read-out: Brain/blood concentration ratio at 2.0 h
Method: • 2. Test of the brain permeability of compound (−)-I-10 administered to C57 male mice by single intragastric administration, intraperitoneal injection and intravenous injection
Using the same method as the pharmacokinetic experiment, 0.030 mL of blood was taken from each animal through the orbit at 0.5 and 2.0 hours, respectively, and anticoagulated with EDTA-K2. Blood samples were placed on ice after collection, and the plasma was separated by centrifugation within 30 minutes (centrifugation conditions: 5000 rpm, 10 minutes, 4° C.) and stored at −80° C. until analysis. After the animal was euthanized by bloodletting, the brain tissue samples were taken, homogenized with 50% methanol according to the body weight of 1:3 (m/v=1:3), and stored at −80° C. before homogenate analysis. The drug concentrations in plasma and brain tissue were analyzed by LC/MS/MS and compared.

C57B6 male mice [3] = assay: Tail suspension experiment after 5 h restraint (depression-like behavior); settings: for Immobility time, tail suspension experiment: restraint for five hours
Method: The experimental animals were C57B6 male mice, n=8 in each group. Firstly, the C57B6 mice were induced to develop depression-related behavioral representations by restraining the mice for 5 hours, and then the effects of the compounds on their “depression-like” behaviors were determined by tail suspension and forced swimming experiments. The specific experimental procedure was as follows. First, the mice were restrained using a mouse fixator for tail vein injection. During the restraint process, all behavioral abilities of the mice were restricted under the condition of ensuring minimal pain to the mice. The mice were administered intraperitoneally once before and after restraint, respectively. After the restraint, the mice returned to the cage to recover for 30 minutes. After the 30 minutes, the mice in different groups were subjected to tail suspension or forced swimming to detect their “depression-like” behavior, respectively.
Tail suspension experiment: the tip of the tail of the mouse was fixed on the suspension rod of the iron stand by adhesive tape, and the mouse remained in the hanging position for 6 minutes. The first 2 minutes was the adaptation period, and no data collection was performed, and the time of the intermittent immobility behavior of the mouse was recorded in the next 4 minutes. The duration of this immobility state was used to measure the degree of behavioral despair in the mouse. Data statistics were carried out using Student-t-test, p<0.05 was *, p<0.01 was **, p<0.001 was ***, p<0.0001 was ****.

C57B6 male mice [4] = assay: Freezing behavior test; settings: 10 mg/kg
Method: Experimental method: The experimental animals were C57B6 male mice, n=8 in each group. Mice were first injected with different compounds, and after a certain period of time (30 min or 60 min), the mice were in an upright and unnatural state by placing their forelimbs on a high glass hanging rod (about 5 cm from the ground). Then the time for the mice to maintain this state was measured, and the length of time was used to determine the freezing effect of the drug on the mice.

[5] = mouse, plasma, intravenous injection 1 mg/kg
[6] = mouse, plasma, ip, intraperitoneal injection 1 mg/kg
[7] = mouse, plasma, oral administration 5 mg/kg
[8] = ip, intraperitoneal injection 1 mg/kg

With `CN(C)C(=O)N[C@H]1CC[C@H](CCN2CCN3c4cccc5[nH]cc(c45)C[C@H]3C2)CC1` [(−)-I-10] as the molecule, how does the “pharmacokinetic properties (in words)” value [1] read?
The value was “good pharmacokinetic properties”.

What about the “Terminal elimination rate Kel” value ([1]; intraperitoneal injection 1 mg/kg) of the same molecule?
Its value is 0.886 h⁻¹.

And the “Terminal elimination rate Kel” value ([1]; intravenous injection 1 mg/kg)?
Its value is 0.805 h⁻¹.

What about the Vd ([1]; mouse, plasma, intravenous injection 1 mg/kg, read-out: Apparent volume of distribution Vdss) of the same molecule?
Its Vd is 4.86 L/kg.

What about the AUC(0-inf) [1, 5] of the same molecule?
The AUC(0-inf) was 215 ng·h/mL.

What about the AUC(0-t) [1, 5] of the same molecule?
Its AUC(0-t) is 211 ng·h/mL.

What about the clearance ([1]; mouse, plasma, intravenous injection 1 mg/kg, read-out: Clearance CL) of the same molecule?
Its clearance is 77.6 mL/min/kg.

What about the MRT [1, 5] of the same molecule?
Its MRT is 62.4 min.

What about the half-life [1, 5] of the same molecule?
The half-life was 51.7 min.

What about the AUC(0-inf) [1, 6] of the same molecule?
Its AUC(0-inf) is 175 ng·h/mL.

What about the AUC(0-t) [1, 6] of the same molecule?
Its AUC(0-t) is 172 ng·h/mL.

What about the bioavailability [1, 6] of the same molecule?
The bioavailability was 81.4%.

What about the Cmax [1, 6] of the same molecule?
Its Cmax is 271 ng/mL.

And the MRT [1, 6]?
Its MRT is 46.2 min.

What about the half-life [1, 6] of the same molecule?
Its half-life is 46.9 min.

What about the Tmax [1, 6] of the same molecule?
Its Tmax is 5 min.

And the AUC(0-inf) [1, 7]?
Its AUC(0-inf) is 596 ng·h/mL.

And the AUC(0-t) [1, 7]?
The AUC(0-t) was 591 ng·h/mL.

And the bioavailability [1, 7]?
Its bioavailability is 55.9%.

And the Cmax [1, 7]?
The Cmax was 558 ng/mL.

What about the MRT [1, 7] of the same molecule?
The MRT was 89.4 min.

What about the half-life [1, 7] of the same molecule?
Its half-life is 69 min.

And the Tmax [1, 7]?
Its Tmax is 5 min.

What about the “Terminal elimination rate Kel” value ([1]; oral administration 5 mg/kg) of the same molecule?
The value was 0.604 h⁻¹.

What about the concentration at 0.5 h ([2]; brain, intravenous injection 1 mg/kg, read-out: Drug concentration at 0.5 h in brain) of the same molecule?
Its concentration at 0.5 h is 219 ± 21 ng/mL.

And the concentration at 2 h ([2]; brain, intravenous injection 1 mg/kg, read-out: Drug concentration at 2.0 h in brain)?
The concentration at 2 h was 77 ± 7 ng/mL.

And the concentration at 0.5 h ([2]; brain, ip, intraperitoneal injection 1 mg/kg, read-out: Drug concentration at 0.5 h in brain)?
Its concentration at 0.5 h is 193 ± 13 ng/mL.

What about the concentration at 2 h ([2]; brain, ip, intraperitoneal injection 1 mg/kg, read-out: Drug concentration at 2.0 h in brain) of the same molecule?
Its concentration at 2 h is 42.7 ± 4 ng/mL.

What about the concentration at 0.5 h ([2]; brain, oral administration 5 mg/kg, read-out: Drug concentration at 0.5 h in brain) of the same molecule?
The concentration at 0.5 h was 346 ± 217 ng/mL.

What about the concentration at 2 h ([2]; brain, oral administration 5 mg/kg, read-out: Drug concentration at 2.0 h in brain) of the same molecule?
The concentration at 2 h was 169 ± 23 ng/mL.

And the Kp at 0.5 h ([2]; intravenous injection 1 mg/kg)?
The Kp at 0.5 h was 1.65.

What about the Kp at 2 h ([2]; intravenous injection 1 mg/kg) of the same molecule?
The Kp at 2 h was 3.09.

And the Kp at 0.5 h [2, 8]?
Its Kp at 0.5 h is 1.56.

What about the Kp at 2 h [2, 8] of the same molecule?
Its Kp at 2 h is 3.1.

And the Kp at 0.5 h ([2]; oral administration 5 mg/kg)?
Its Kp at 0.5 h is 1.5.

What about the Kp at 2 h ([2]; oral administration 5 mg/kg) of the same molecule?
The Kp at 2 h was 1.78.

What about the concentration at 0.5 h ([2]; plasma, intravenous injection 1 mg/kg, read-out: Drug concentration at 0.5 h in plasma) of the same molecule?
The concentration at 0.5 h was 133 ± 19 ng/mL.

What about the concentration at 2 h ([2]; plasma, intravenous injection 1 mg/kg, read-out: Drug concentration at 2.0 h in plasma) of the same molecule?
The concentration at 2 h was 24.9 ± 5 ng/mL.

What about the concentration at 0.5 h ([2]; plasma, ip, intraperitoneal injection 1 mg/kg, read-out: Drug concentration at 0.5 h in plasma) of the same molecule?
Its concentration at 0.5 h is 124 ± 15 ng/mL.

What about the concentration at 2 h ([2]; plasma, ip, intraperitoneal injection 1 mg/kg, read-out: Drug concentration at 2.0 h in plasma) of the same molecule?
The concentration at 2 h was 13.8 ± 2.7 ng/mL.

What about the concentration at 0.5 h ([2]; plasma, oral administration 5 mg/kg, read-out: Drug concentration at 0.5 h in plasma) of the same molecule?
The concentration at 0.5 h was 231 ± 153 ng/mL.

What about the concentration at 2 h ([2]; plasma, oral administration 5 mg/kg, read-out: Drug concentration at 2.0 h in plasma) of the same molecule?
Its concentration at 2 h is 95 ± 16 ng/mL.

What about the “inhibition of restraint-induced depression-like behavior (in words)” value (C57B6 male mice [3]; 0.4 mg/kg and 0.1 mg/kg, tail suspension and forced swimming) of the same molecule?
The value was “significantly inhibit”.

What about the “Immobility time, tail suspension experiment” value (“Immobility time” below) (C57B6 male mice [3]; 0.00625 mg/kg intraperitoneal) of the same molecule?
Its value is 132.6 s.

What about the “Immobility time” value (C57B6 male mice [3]; 0.025 mg/kg intraperitoneal) of the same molecule?
The value was 101.8 s.

And the “Immobility time” value (C57B6 male mice [3]; 0.1 mg/kg intraperitoneal)?
The value was 90.31 s.

What about the “Immobility time” value (C57B6 male mice [3]; 0.4 mg/kg intraperitoneal) of the same molecule?
The value was 72.66 s.

What about the “freezing induction effect on mice (in words)” value (C57B6 male mice [4]) of the same molecule?
The value was “no freezing induction effect”.

What about the Freezing time (C57B6 male mice [4]; 30 minutes after administration) of the same molecule?
Its Freezing time is 2.194 ± 0.2524 s.

And the Freezing time (C57B6 male mice [4]; 60 minutes after administration)?
The Freezing time was 2.165 ± 0.3256 s.
